In US20110071630A1, “SODIUM CHANNEL BLOCKER DELIVERY SYSTEM WITH SCLERAL LENS” (Boston Foundation for Sight, priority 2009, published 2011):

What was measured:
[1] = test system: cornea; conditions: 0.05% concentration, after photorefractive keratectomy; cited from earlier work
[2] = test system: corneal neuropathic pain; experiment: Treatment of corneal neuropathic pain in patients, drug solution in the fluid reservoir of a scleral lens (BOS-P); assay type: in vivo, human
Description: (§1) A patient with well established primary Sjögren's syndrome and severe dry eyes was treated for intense, constant corneal pain using the anesthetic delivery system disclosed herein. Specifically, the patient was treated with bupivacaine and BOS-P devices. The concentration of non-preserved bupivacaine was rapidly titrated using frequent (every 2-5 minutes) drops in the more symptomatic left eye (open label) measuring corneal sensitivity with a Cochet-Bonnet aesthesiometer (with adequate recovery times) until reaching the concentration that avoided any depression of corneal sensitivity. The sub-anesthetic concentration in this patient was determined to be 0.001%. Both BOS-P devices were filled with 0.001% bupivacaine and inserted into the patient's eyes. The patient then left.
The patient was given a vial of 0.01% bupivacaine to dilute 1:10 (e.g., add one drop of 0.01% bupivacaine to nine drops of saline) to fill the reservoir of the left lens prior to inserting it the next morning.
They wore the BOS-P containing 0.001% bupivacaine in their left eye, and the BOS-P containing saline in their right eye unmasked to the patient and doctor, for about 8 hours. […] Corneal sensation in the treated eye was normal. […]

[3] = test system: corneal sensation; experiment: Corneal sensitivity measured with a Cochet-Bonnet aesthesiometer; assay type: in vivo, human
Source text: The sub-hypoesthetic dose for a sodium channel blocker or a sodium channel modulator may vary between patients. […] The sub-hypoesthetic dose of a sodium channel blocker or a sodium channel modulator can be determined for an individual patient by selecting a higher starting concentration and gradually reducing the concentration via titration until reaching a sub-hypoesthetic dose as determined by a contact and non-contact esthesiometer. A non-limiting example of a method of determining corneal sensitivity is Cochet-Bonnet aesthesiometry.
As used herein, the phrases “sub-anesthetic dose” and “sub-anesthetic concentration” refer to a dose of a sodium channel blocker or a sodium channel modulator or a sodium channel modulator that is lower than the anesthetic dose. “Sub-anesthetic dose” and “sub-anesthetic concentration” may be used interchangeably. The sub-anesthetic dose of a sodium channel blocker or a sodium channel modulator may vary between patients. The sub-anesthetic dose of a sodium channel blocker or a sodium channel modulator can be determined for an individual patient by selecting a higher starting concentration and gradually reducing the concentration via titration until reaching a sub-anesthetic dose as determined by a contact and non-contact esthesiometer. A non-limiting example of a starting concentration of a sodium channel blocker or a sodium channel modulator is about 0.02%. In some embodiments, the concentration of the sodium channel blocker or a sodium channel modulator may be titrated down to a concentration that avoids any depression of corneal sensitivity. A non-limiting example of a method of determining corneal sensitivity is Cochet-Bonnet aesthesiometry.
as §1
The patient was given a vial of 0.01% bupivacaine to dilute 1:10 (e.g., add one drop of 0.01% bupivacaine to nine drops of saline) to fill the reservoir of the left lens prior to inserting it the next morning. […]

[4] = test system: cornea; experiment: Examination of the cornea for adverse effects (fluorescein staining, slit lamp examination, confocal microscopy); assay type: in vivo, human
Description: They wore the BOS-P containing 0.001% bupivacaine in their left eye, and the BOS-P containing saline in their right eye unmasked to the patient and doctor, for about 8 hours. […] Corneal sensation in the treated eye was normal.
The patient returned the following day 2 hours after inserting the scleral lenses containing 0.015% ropivacaine.
A patient suffered from severe corneal neuropathic pain for many years, greatly limiting the patient's quality of life. This disease was refractory to previous treatments. Lacosamide was placed in the fluid reservoir of the device where it remained in contact with the cornea while it was worn (approximately 10 hours/day).

[5] = test system: corneal neuropathic pain; experiment: Eye drops without scleral lens for corneal neuropathic pain; assay type: in vivo, human; conditions: Example 5, eye drops 0.5% lacosamide
Description: Eye drops containing 0.5% lacosamide were administered to the eyes of two patients and to the an eye of the inventor. […] Therefore, it is believed that lacosamide may be used in eye drops at a concentration of up to 5% to treat corneal neuropathic pain without depressing corneal sensation.

CCCOc1ccc(C(=O)OCCN(CC)CC)cc1N [Proparacaine, proparacaine]
anesthetic effect, toxicity and safety [1]: non-anesthetic, non-toxic, and safe for at least one week of use

CCCCN1CCCCC1C(=O)Nc1c(C)cccc1C (stereo not shown) [bupivacaine]
eye comfort reported by patient ([2]; Example 1, next day after both BOS-P devices were filled with 0.001% bupivacaine): more comfortable than they had been in 3 months | pain reported by patient at day's end ([2]; Example 1, second day, left lens reservoir filled with non-preserved bupivacaine): virtual absence of pain in either eye | pain after exposure to glass cleaner or white board marker ([2]; Example 1, second day, exposure would ordinarily trigger severe pain): little or no pain | pain reported after about 8 hours of wear ([2]; Example 1, third day, 0.001% bupivacaine in left BOS-P, saline in right BOS-P): virtually no pain in either eye | pain, Visual Analog Scale ([2]; Example 1, third day, on arrival): virtually no pain in either eye | eye symptoms (photosensitivity, burning pain, inability to read) ([2]; Example 2, 0.002% bupivacaine in both BOS-P lenses, at least 12 hours/day, over several weeks): resolved | eye symptoms ([2]; Example 2, bupivacaine diluted to 0.0014% in BOS-P): resolved | sub-anesthetic concentration (concentration that avoided any depression of corneal sensitivity) ([3]; Example 1, Sjögren's syndrome patient, titration with drops every 2-5 minutes in left eye): 0.001% | corneal sensation by Cochet-Bonnet aesthesiometry ([3]; in vivo): remained intact | fluorescein staining after lens removal ([4]; in vivo): no significant fluorescein staining in either eye

COC[C@@H](NC(C)=O)C(=O)NCc1ccccc1 [lacosamide]
corneal neuropathic pain ([2]; Example 4, 0.003% lacosamide in BOS-P, approximately 10 hours/day): significantly mitigated | eye and co-morbid pain symptoms ([2]; Example 6, chronic graft versus host disease patient, lacosamide 0.05% in scleral lens reservoir): disappeared | maximum concentration that avoided significant depression of corneal sensation ([3]; Example 4, titration, fluid reservoir of BOS-P): 0.003% | corneal sensation ([3]; Example 5, eye drops 0.5% lacosamide, two patients and an eye of the inventor): did not depress corneal sensation | effects on the corneas by slit lamp examination and confocal microscopy ([4]; Example 4, 0.003% lacosamide in BOS-P): without any detrimental effects to the corneas | duration of effect, one patient [5]: over four hours | duration of effect, the other patient [5]: over two hours | onset of pain resolution [5]: almost immediately after administration | corneal neuropathic pain ([5]; both patients): complete resolution of corneal neuropathic pain

CCCN1CCCC[C@H]1C(=O)Nc1c(C)cccc1C [ropivacaine]
eye pain and photophobia, lenses worn until midnight the previous day ([2]; Example 3, 0.015% ropivacaine in scleral lenses): total resolution of eye pain and photophobia | symptoms at examination, 2 hours after inserting lenses ([2]; Example 3, 0.015% ropivacaine, following day): free of symptoms | eye pain and photosensitivity following application ([2]; Example 3, Stevens-Johnson syndrome patient, 0.015% ropivacaine in scleral lenses, first day): rapid mitigation of eye pain and photosensitivity | eye pain and photophobia at subsequent examinations ([2]; Example 3, ropivacaine in scleral lenses): significant mitigation of eye pain and photophobia | corneal sensitivities at subsequent examinations ([3]; in vivo): normal corneal sensitivities | corneal sensitivity by Cochet-Bonnet aesthesiometer ([3]; in vivo): normal | adverse effects on the eyes from the treatment ([4]; in vivo): no adverse effects | treatment-related complications at subsequent examinations ([4]; in vivo): without adverse treatment-related complications
